In assay [1] the test system is DU 145, hormone-independent human prostate carcinoma cells. The experiment in a line: Proliferation assay (crystal violet), DU 145. Type of assay: cell-based. As to conditions: DU145 cells, read-out: Inhibition of DU145 cell proliferation.
The test system of assay [2] is HeLa human cervical tumour cells. The assay is described as follows: Proliferation assay (crystal violet), HeLa. Type of assay: cell-based. The conditions noted are these: read-out: Inhibition of HeLa cell proliferation.
A further assay deals with T1, CDK2/CycE (Homo sapiens, UniProt P24941).
T1 construct: GST; purchased ProQinase GmbH (Freiburg, Germany); host or cells: insect cells (Sf9)
The assay is described as follows: CDK2/CycE kinase assay (TR-FRET). Type of assay: biochemical. The conditions noted are these: Method 2, 10 μM ATP. In a few lines:
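GST-CDK2/GST-CycE (Sf9-expressed, ~130 ng/ml) pre-incubated with compound 15 min, then reacted 25 min at 22 °C with 10 μM ATP and 0.75 μM biotinylated peptide in Tris pH 8.0. Phospho-substrate detected by TR-FRET (anti-pRb pSer807/811, Eu/XL665), 665/620 nm ratio.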

Assay [3] relates to NCI-H460, human non-small cell lung carcinoma cells. The experiment in a line: Proliferation assay (crystal violet), NCI-H460. As to conditions: read-out: Inhibition of H460 cell proliferation (activity range). Type of assay: cell-based. How it is done: (§1) Cultivated tumour cells (NCI-H460, human non-small cell lung carcinoma cells, ATCC HTB-177; DU 145, hormone-independent human prostate carcinoma cells, ATCC HTB-81; HeLa-MaTu, human cervical carcinoma cells, EPO-GmbH, Berlin; HeLa-MaTu-ADR, multidrug-resistant human cervical carcinoma cells, EPO-GmbH, Berlin; HeLa human cervical tumour cells, ATCC CCL-2; Caco-2 human colorectal carcinoma, ATCC HTB-37; B16F10 mouse melanoma cells, ATCC CRL-6475) were plated at a density of 5000 cells/well (DU145, HeLa-MaTu-ADR), 3000 cells/well (NCI-H460, HeLa-MaTu, HeLa), 1500 cells/well (Caco-2), or 1000 cells/well (B16F10) in a 96-well multititer plate in 200 μL of their respective growth medium supplemented 10% fetal calf serum. After 24 hours, the cells of one plate (zero-point plate) were stained with crystal violet (see below), while the medium of the other plates was replaced by fresh culture medium (200 μl), to which the test substances were added in various concentrations (0 μM, as well as in the range of 0.001-10 μM; the final concentration of the solvent dimethyl sulfoxide was 0.5%). The cells were incubated for 4 days in the presence of test substances. Cell proliferation was determined by staining the cells with crystal violet: the cells were fixed by adding 20 μl/measuring point of an 11% glutaric aldehyde solution for 15 minutes at room temperature. After three washing cycles of the fixed cells with water, the plates were dried at room temperature. The cells were stained by adding 100 μl/measuring point of a 0.1% crystal violet solution (pH 3.0). After three washing cycles of the stained cells with water, the plates were dried at room temperature. The dye was dissolved by adding 100 μl/measuring point of a 10% acetic acid solution. The extinction was determined by photometry at a wavelength of 595 nm. The change of cell number, in percent, was calculated by normalization of the measured values to the extinction values of the zero-point plate (=0%) and the extinction of the untreated (0 μm) cells (=100%). The IC50 values were determined by means of a 4 parameter fit.

Assay [4] deals with HeLa-MaTu-ADR, multidrug-resistant human cervical carcinoma cells. The assay is described as follows: Proliferation assay (crystal violet), HeLa-MaTu-ADR. As to conditions: read-out: Inhibition of HeLa/MaTu/ADR cell proliferation. The assay is classed as cell-based. The method, then: as §1

Each structure is given as a SMILES string.

Turning to `CS(=O)(=O)Cc1cccc(Nc2ncnc(-c3cc(F)ccc3OCc3cccc(F)c3)n2)c1` [Example 31, 4-{5-Fluoro-2-[(3-fluorobenzyl)oxy]phenyl}-N-{3-[(methylsulfonyl)methyl]phenyl}-1,3,5-triazin-2-amine], the IC50 in assay [1] was 280 nM; in assay [2], 290 nM; against CDK2/CycE it was 330 nM; in assay [3] it was 200 nM; in assay [4], 160 nM.

As for `CS(=O)(=O)Cc1cccc(Nc2ncnc(-c3ccc(F)cc3OCCCC(F)(F)F)n2)c1` [Example 59, 4-[4-Fluoro-2-(4,4,4-trifluorobutoxy)phenyl]-N-{3-[(methylsulfonyl)methyl]phenyl}-1,3,5-triazin-2-amine], the IC50 in assay [1] was 220 nM; in assay [2], 470 nM; against CDK2/CycE, 710 nM; in assay [3] it was 350 nM; in assay [4] it was 220 nM.

Consider `CC#CCOc1cc(F)ccc1-c1ncnc(Nc2cccc(CS(C)(=O)=O)c2)n1` [Example 62, 4-[2-(But-2-yn-1-yloxy)-4-fluorophenyl]-N-{3-[(methylsulfonyl)methyl]phenyl}-1,3,5-triazin-2-amine], for which the IC50 in assay [1] was 170 nM; in assay [2], 110 nM; against CDK2/CycE it was 540 nM; in assay [3] it was 160 nM; in assay [4], 180 nM.

As for `Cc1cc(COc2cc(F)ccc2-c2ncnc(Nc3cccc(CS(C)(=O)=O)c3)n2)ccn1` [Example 87, 4-{4-Fluoro-2-[(2-methylpyridin-4-yl)methoxy]-phenyl}-N-{3-[(methylsulfonyl)methyl]phenyl}-1,3,5-triazin-2-amine], the IC50 in assay [1] was found to be 300 nM; in assay [2], 320 nM; on CDK2/CycE it was 370 nM; in assay [3] it was 340 nM; in assay [4] it was 740 nM.

On to `COc1cc(F)c(F)cc1-c1ncnc(Nc2cccc(CS(C)(=O)=O)c2)n1` [Example 1, 4-(4,5-Difluoro-2-methoxyphenyl)-N-{3-[(methylsulfonyl)methyl]phenyl}-1,3,5-triazin-2-amine], for which the IC50 in assay [1] was 830 nM; in assay [2] it was 680 nM; at CDK2/CycE it was 640 nM; in assay [3] it was 910 nM; in assay [4], 400 nM.

As to `COc1cc(F)ccc1-c1ncnc(Nc2ccc(F)c(CS(C)(=O)=O)c2)n1` [Example 33, 4-(4-Fluoro-2-methoxyphenyl)-N-{4-fluoro-3-[(methylsulfonyl)methyl]phenyl}-1,3,5-triazin-2-amine], the IC50 is 330 nM in assay [1]; 340 nM in assay [2]; 360 nM at CDK2/CycE; 340 nM in assay [3]; 180 nM in assay [4].

Turning to `CS(=O)(=O)Cc1cccc(Nc2ncnc(-c3ccc(F)cc3OCc3ccnc(Cl)c3)n2)c1` [Example 88, 4-{2-[(2-Chloropyridin-4-yl)methoxy]-4-fluorophenyl}-N-{3-[(methylsulfonyl)-methyl]phenyl}-1,3,5-triazin-2-amine], the IC50 is 170 nM in assay [1]; 190 nM in assay [2]; 130 nM against CDK2/CycE; 210 nM in assay [3]; 270 nM in assay [4].

For the origin of these results see patent US8916557B2, “Substituted 4-Aryl-N-phenyl-1,3,5-triazin-2-amines” (Bayer Intellectual Property GmbH, priority 2011, dated 2014).
